# Legend:
# [1] = Pharmacokinetic analysis, brain and plasma concentration after single oral administration; assay type: in vivo; conditions: normal mice
# Protocol: (§1) Trametinib treatment: Trametinib (Medchemexpress, Monmouth Junction, N.J.) was micronized and suspended in the vehicle containing 5% mannitol, 1.5% hydroxypropyl methylcellulose and 0.2% sodium lauryl sulfate. For pharmacokinetic analysis, 0.05, 0.2 and 0.8 mg/kg of trametinib were orally administered to 7-week-old normal mice (ICR, n=5 per group) as a single administration. […] For studies on the change in pERK expression in normal mice and whole cell RNA sequencing study, 0.1 mg/kg/day of trametinib (in 4% DMSO+96% corn oil) was orally administered to 6-week old C57BL/6 mice (n=3 per group). Mice were sacrificed after 1, 2, 3, or 4 weeks of administration. 5XFAD mice (male, n=7˜10 per group) were divided into vehicle and trametinib treated groups. 12-month old mice received vehicle or 0.1 mg/kg of trametinib for 1 month by oral gavage once a day (These mice are referred to as “13-month old 5XFAD mice” in the Examples). […] Blood was obtained after completion of treatment.
# MEK1/2 = experiment: Western blot of pERKs and ERKs in whole brain lysates of normal mice; assay type: in vivo; conditions: 0.1 mg/kg/day oral
# Protocol: as §1
# Lysates were centrifuged at 13,000 rpm for 20 min at 4° C., and the protein content in the supernatant was determined using the Bradford assay (Bio-rad, Hercules, Calif.). For subcellular fractionation, cells were lysed with lysis buffer (250 mM Sucrose, 20 mM HEPES, pH 7.4, 10 mM KCl, 1.5 mM MgCl2, 1 mM EGTA, 1 mM EDTA, 1 mM DTT) containing protease inhibitor for 30 min on ice, followed by centrifugation at 720 g for 5 min at 4° C. Supernatants were centrifuged at 15,000 rpm for 10 min at 4° C., and the resulting supernatant was used as the cytosol fraction. After centrifugation at 720 g for 5 min, pellets were washed with lysis buffer and dissolved in nuclear lysis buffer (50 mM Tris HCl, pH 8.0, 150 mM NaCl, 1% NP40, 0.5% sodium deoxycholate, 0.1% SDS, 10% glycerol) as the nuclear fraction. Protein from each sample was subjected to 8%˜15% SDS-PAGE, and the resolved proteins were transferred to nitrocellulose or polyvinylidene fluoride membrane. The membranes were blocked with 5% nonfat milk powder in Tris-buffered saline/Tween 20 (TBST) for 1 h at room temperature, then incubated with anti-phospho-ERK (Cell signaling), anti-ERK (Cell signaling), anti-LAMP1 (Abcam), anti-LC3 (Cell signaling), anti-cathepsin B (Cell signaling), anti-p62 (Cell signaling), anti-p62 (5114, Cell signaling), anti-phospho-mTOR (5536, Cell signaling), anti-mTOR (2983, Cell signaling), anti-phospho-ULK1 (14202, Cell signaling), anti-ULK1 (8054, Cell signaling), anti-TFEB (852501, Biolegend), and anti-GAPDH (Cell signaling) overnight at 4° C. After washing, membranes were incubated with horseradish peroxidase-conjugated goat anti-rabbit IgG antibody (Thermo) or goat anti-rat IgG antibody (Thermo) for 2 h at room temperature. […] The detected signals were quantified using a LAS-4000 system (Fuji Film, Tokyo, Japan).
# 5XFAD mice [2] = experiment: Behavioral studies: Y-maze and novel object recognition tests; assay type: in vivo
# Protocol: as §1
# 5XFAD mice [3] = experiment: Immunofluorescence of active caspase 3, LC3 and LAMP1 in cortex layer V; assay type: in vivo; conditions: 5XFAD mice cortex
# Protocol: as §1
# Brains were dissected and analyzed by immunohistochemistry. For paraffin sections, brain hemispheres were embedded sagittally in paraffin and prepared into sections of […] slices. […] The sections were counterstained with DAPI. […] NeuN-positive and active caspase 3-positive cells from cortex layer V were counted using Icy micromanager program (Institut Pasteur, Paris, France).
# [4] = tested on: neurons and neural stem cells (NSCs); conditions: in vitro, even in the presence of cytotoxic oligomers of Aβ1-42; cited from earlier work
compound,measurement,setting,value
CC(=O)Nc1cccc(-n2c(=O)n(C3CC3)c(=O)c3c(Nc4ccc(I)cc4F)n(C)c(=O)c(C)c32)c1 [trametinib],Kp,"[1]; ICR, mouse, brain and plasma, 0.8 mg/kg, highest dose group, read-out: brain/plasma exposure ratio (AUC)",0.477
same,penetration of the blood-brain barrier (BBB),[1],confirmed to penetrate the blood-brain barrier (BBB)
same,decrease of p-ERKs/ERKs ratio compared to vehicle treated group,MEK1/2; 1 week administration,22.5%
same,decrease of p-ERKs/ERKs ratio compared to vehicle treated group,MEK1/2; 2 week administration,33.7%
same,decrease of p-ERKs/ERKs ratio compared to vehicle treated group,MEK1/2; 3 week administration,50%
same,decrease of p-ERKs/ERKs ratio compared to vehicle treated group,MEK1/2; 4 week administration,45.6%
same,memory formation in Y-maze and novel object recognition tests,5XFAD mice [2],recovery of memory formation
same,LC3-LAMP1 co-stained cells,5XFAD mice [3],Increased LC3-LAMP1 co-stained cells
same,apoptosis (active caspase 3),5XFAD mice [3],reduced apoptosis
same,neuronal differentiation and survival of neurons and NSCs,[4],effective in inducing neuronal differentiation and promoting survival of neurons and neural stem cells (NSCs)

# Source: patent US20220265657A1, “ADMINISTRATION METHOD AND DOSAGE REGIMEN FOR TREATMENT OF NEURODEGENERATIVE DISEASES USING TRAMETINIB AND MARKERS” (GENUV INC., priority 2019, published 2022)
